For data set [1], the system named is CD-1 mouse liver microsomes. The note with it: pH 7.4; for Peak Area, t0: 0 min. The procedure:
Microsomal stability (and thus susceptibility to metabolism) was tested using microsomes derived from CD-1 mouse liver. According to the applied protocol, both phases of metabolism were activated by the addition of cofactors NADPH and UDP-GlcUA. […] Stock solutions of all tested compounds (5 mM DMSO solutions) were diluted with 0.1 M potassium phosphate buffer pH 7.4 to obtain 0.1 mM solutions, which were further incubated according to the protocol. In order to activate both the 1st and 2nd phases of metabolism, NADPH and UDP-GlcUA were used as cofactors. Tested compounds were incubated at 37 °C for 30 min, and the incubation was quenched immediately after the addition of cofactors (t0) and after the defined incubation time (t) by mixing 100 µL of corresponding incubation mixtures with 200 µL of cold acetonitrile. All compounds were tested in duplicates, and their concentrations were determined using the HPLC-MS/MS method (Section 3.7.1).
The HPLC-MS/MS analysis was performed on the UHPLC chromatograph ACELLA (Thermo Fisher Scientific Inc., Madison, WI, USA), coupled to a triple quadrupole mass spectrometer TSQ Quantum Access MAX (Thermo Fisher Scientific Inc., Madison, WI, USA) with a heated electrospray ionization (HESI) interface. The column used was Zorbax Extend C18 (150 mm × 4.6 mm, 5 µm; Agilent Technologies), which was thermostated at 25 °C. The mobile phase consisted of acetonitrile and 0.1% formic acid (60:40, v/v), with a flow rate of 500 µL/min. The injection volume was 10 µL.

In data set [2] the test system is zebrafish embryos. Further details: method as in PMID 38931946. The note with it: at therapeutic doses; cited from earlier work.
For data set [3], the target named is T1, human serum albumin (HSA) (Homo sapiens, UniProt P02768).
T1 construct: purchased Sigma-Aldrich
T1 sequence (P02768 25-609): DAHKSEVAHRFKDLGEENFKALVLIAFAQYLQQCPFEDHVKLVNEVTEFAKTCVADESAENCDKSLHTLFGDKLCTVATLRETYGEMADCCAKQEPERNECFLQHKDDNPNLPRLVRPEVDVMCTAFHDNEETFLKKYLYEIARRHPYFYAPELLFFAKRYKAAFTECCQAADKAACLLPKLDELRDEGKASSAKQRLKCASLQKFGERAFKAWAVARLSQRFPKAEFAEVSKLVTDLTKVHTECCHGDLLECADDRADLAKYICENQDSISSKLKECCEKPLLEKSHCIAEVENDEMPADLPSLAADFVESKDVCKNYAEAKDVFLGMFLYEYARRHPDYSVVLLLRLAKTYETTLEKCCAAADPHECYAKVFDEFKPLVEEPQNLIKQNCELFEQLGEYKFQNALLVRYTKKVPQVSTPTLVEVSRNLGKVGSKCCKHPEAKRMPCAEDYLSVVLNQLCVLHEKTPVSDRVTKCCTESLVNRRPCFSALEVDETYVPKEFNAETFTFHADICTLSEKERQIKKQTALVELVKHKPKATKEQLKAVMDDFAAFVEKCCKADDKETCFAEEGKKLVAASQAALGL
It is filed as binding. The note with it: CHIRALPAK HSA column, ammonium acetate buffer pH 7.0/acetonitrile 85:15, 25 °C. As to the method:
Recently, interactions of many newly synthesized structurally diverse compounds with HSA were successfully studied using this technique. The degree of binding of the tested compounds to HSA was evaluated based on their retention behavior on the stationary phase modified with HSA. The logarithmic values of retention factors (logk) were used to evaluate indirectly and compare the drug–HSA interaction.
HPAC analysis was performed on an Agilent 1200 Series chromatograph (Agilent Technologies, Santa Clara, CA, USA). […] The mobile phase consisted of ammonium acetate buffer (pH 7.0; 0.01 M) and acetonitrile (85:15, v/v). The flow rate was 0.6 mL/min, the temperature was set to 25 °C, and the detection of tested compounds was carried out at 283 nm. Tested compounds were dissolved in DMSO (at a concentration of 1 mg/mL), further diluted with the mobile phase to a final concentration of 0.05 mg/mL, and analyzed in triplicate. The HPAC conditions were selected not only with the aim of achieving satisfactory retention characteristics of all synthesized compounds but also taking into account recommendations of a column manufacturer. Retention factors were calculated using Equation (1), where t0 (column dead time) was the retention time of DMSO at 220 nm.

With `COc1ccc2c(c1)c(CNC(=O)NO)c(C)n2C(=O)c1ccc(Cl)cc1` [Compound 1], the “Peak Area, t0” value in data set [1] is recorded as 131.5 ± 16.8 ×10^3. In data set [1] (30 min), the “Peak Area, t” value was 60.5 ± 6.4 ×10^3.

As to `CC(NC(=O)NO)c1ccc(-c2ccccc2)c(F)c1` (stereo not shown) [Compound 2], in data set [1], the “Peak Area, t0” value is 16.5 ± 3.1 ×10^3. Also, in data set [1] (30 min), the “Peak Area, t” value is listed as 9.6 ± 3.0 ×10^3 and the “The Decrease in Peak Area (%)” value was 41.65 (p = 0.0034) %.

On to `O=C(NO)NCc1ccccc1Nc1c(Cl)cccc1Cl` [Compound 3], for which the “toxic effects on zebrafish embryos” value in data set [2] is reported as “did not show toxic effects”. In data set [1], the “Peak Area, t0” value was 1033.6 ± 42.5 ×10^3. Moreover, in data set [1] (30 min), the “Peak Area, t” value is 455.5 ± 8.9 ×10^3.

For `CC(=O)N(O)C(C)c1ccc(CC(C)C)cc1` (stereo not shown) [Compound 11], the “Peak Area, t0” value in data set [1] is 60.0 ± 1.4 ×10^3. Besides, the “Peak Area, t” value in data set [1] (30 min) was 44.6 ± 1.9 ×10^3.

Turning to `COc1ccc2cc(C(C)N(O)C(C)=O)ccc2c1` (stereo not shown) [Compound 12], in data set [3], the “Retention Factors (logk)” value is 2.03 ± 0.02. In addition, in data set [1], the “Peak Area, t0” value was 43.9 ± 3.2 ×10^3. Moreover, in data set [1] (30 min), the “Peak Area, t” value was 18.2 ± 0.1 ×10^3.

These data come from paper PMC11510591, “In Vitro Evaluation of Pharmacokinetic Properties of Selected Dual COX-2 and 5-LOX Inhibitors” (Pharmaceuticals, 2024).
